Legend:
[1] = system: HUES8 human embryonic stem cells; experiment: Flow cytometry of cell proportions during directed differentiation of hESCs into β cells; assay type: cell-based
Method: (§1) HUES8 ([…]) human embryonic stem cells and human induced pluripotent stem cells (hiPSCs) from line 1016 (person) were obtained from the Human Embryonic Stem Cell Facility and iPS Core Facility of the Harvard Stem Cell Institute. Cells were differentiated into beta like cells in suspension as described previously^37. Briefly, 150Xe^6 cells were suspended in 300 ml of supplemented mTeSR1 and grown in spinning flasks (70 rpm, 37° C., 5% CO2) for 48 hours prior to the beginning of a stepwise differentiation protocol:
Stage 4—5 days in S3 medium supplemented with KGF (50 ng/ml), Sant1 (0.25 μM) and retinoic acid (0.1 μM).
Stage 5—7 days in BE5 medium supplemented with Beta Cellulin (20 ng/ml). XXI (1 μM), Alk5ill(10 μM) and T3 (1 μM). Sant1 (0.25 μM) was added in the first three days, and retinoic acid was added at 0.1 μM in the first three days, then at 0.025 μM.
Stage 6—CMRLS medium supplemented with Alk5iII (10 μM) and T3 (1 μM).
In many of the experiments following cell collection for sc-RNAseq, the protocol was slightly modified to add Y-27632 (10 μM) at stage 3-5, and ActivinA (5 ng/ml) in stage 4. In some cases, an extra day at stage 4 was also added. For the presented functional and flow cytometry analysis in stage 6, CMRLS based media was replaced with S3 medium, without supplements.
(§2) Factors were tested in either 6-well plates placed on a rocker, or in Biott ABLE Bioreactors (Stemgent). IWR1-endo (Sigma-Aldrich) was used at 5 μM. XAV939 (Santa Cruz, SC-296704A) was used at 5 μM. Recombinant human BMP2/BMP7 (Thermo-Fisher) was used at […]. when added during stage 4, CHIR99021 was used at a concentration of […].
Differentiated cell clusters were dispersed into single-cell suspension by incubation in TrypLE Express at 37° C., quenched with PBS+2% FBS, fixed with 4% PFA for 30 min at 4° C., washed once in PBS, and resuspended in PBS+2% FBS. Staining was done in 96-well plates. Cells were incubated in blocking buffer (PBS+0.1% Triton X-100+5% donkey serum) at 4° C. for 30-60 min. Cells were then re-suspended in blocking buffer with primary antibodies and incubated at room temperature for 1 hour or at 4° C. overnight. Cells were washed twice in blocking buffer and incubated in blocking buffer with secondary antibodies at 4° C. for 1 hour. Cells were then washed three times in PBS+5% Donkey serum and analyzed using either the BD Accuri c6 flow cytometer or the LSR-II flow cytometer (BD Biosciences). Analysis of the results was performed using FlowJo software.

[2] = system: differentiating hESC clusters; experiment: Cell concentration in differentiation batches during stage 6; assay type: cell-based, human; conditions: treatment during stage 5, vs control
Method: The relative changes in gene expression relative to control conditions are presented in log values, for two independent experiments. FIG. 9E provides cell concentration in the differentiation batches analyzed in FIG. 4H. […] Bars show the average±S.E. n, from left to right: 8 (7 for IWR), 6, 8, 7, 6. […] The bars show geometric mean±S.E. of the fold change in insulin secretion following the transition from low (2.8 mM) to high (20 mM) glucose levels. FIG. 9F provides fold change in insulin secretion after one stimulation with high glucose. From left to right: n=5,6,6,3; 2-way ANOVA on log(Fold insulin secretion): p-value=0.83 and 0.16 for differences caused by the treatment or the day of analysis, respectively. […]
Differentiated cells were washed twice in Krebs buffer (Krb) containing 2.8mM glucose, and then distributed into 24-well plates containing Millicell Cell culture inserts for easy transfer between conditions. […] At the end of each step (excluding the wash), the incubation buffer was collected and the amount of insulin secreted during the hour's incubation was determined using human insulin ELISA kit (ALPCO diagnostics; 80-INSHUU-E01.1). Clusters were then dispersed into single cells using TrypLE Express (Life Technologies), and cell number was counted automatically by a Vi-Cell (Beckman Coulter).

[3] = system: human induced pluripotent stem cells (hiPSCs) from line 1016; experiment: Flow cytometry of cell proportions during directed differentiation of hiPSC-1016; assay type: cell-based; conditions: stage 5
Method: as §1, §2
Differentiated cell clusters were dispersed into single-cell suspension by incubation in TrypLE Express at 37° C., quenched with PBS+2% FBS, fixed with 4% PFA for 30 min at 4° C., washed once in PBS, and resuspended in PBS+2% FBS. Staining was done in 96-well plates. Cells were incubated in blocking buffer (PBS+0.1% Triton X-100+5% donkey serum) at 4° C. for 30-60 min. […] Cells were then washed three times in PBS+5% Donkey serum and analyzed using either the BD Accuri c6 flow cytometer or the LSR-II flow cytometer (BD Biosciences). […]

[4] = system: differentiating hESC clusters; experiment: Nanostring mRNA expression of endocrine, hormone and progenitor markers in differentiating clusters; assay type: cell-based, human; conditions: treatment during both stages 4 and 5; relative to control
Method: as §2
Cells were collected for RNA extraction in RLT Lysis Buffer (Qiagen) and frozen at −80° C. RNA was extracted using the RNeasy Mini Kit (Qiagen), according the manufacturer's instructions—including DNA digestion, and 100 ng of RNA was used for each reaction. Nanostring set up was performed according to the protocol for the nCounter XT Gene Expression Assay. Data was analyzed in the nSolver 2.5 Software. All genes were normalized to housekeeping genes (ITCH, RPL15, RPL19, TCEB1, UBE2D3). Analysis of changes in gene expression of markers for endocrine and progenitor cells was done using R.

[5] = system: in vitro generated β cells; experiment: Glucose stimulated insulin secretion (GSIS) of stage 6 cells; assay type: cell-based, human
Method: Differentiated cells were washed twice in Krebs buffer (Krb) containing 2.8mM glucose, and then distributed into 24-well plates containing Millicell Cell culture inserts for easy transfer between conditions. Each well received 0.5 ml buffer with approximately 10^6 cells. After fasting in 2.8 mM glucose for 1 hour in 37° C., the analysis of the cells' response to changing glucose levels was performed by a series of 1 hour incubations in 37° C., in the following order: 1) 2.8 mM (low) glucose. 2) 20 mM (high) glucose. 3) brief wash in 2.8 mM glucose. 4) 1 hour incubation in 2.8 mM glucose. 5) 20 mM glucose. 6) 2.8 mM glucose with 30 mM KCL. At the end of each step (excluding the wash), the incubation buffer was collected and the amount of insulin secreted during the hour's incubation was determined using human insulin ELISA kit (ALPCO diagnostics; 80-INSHUU-E01.1). Clusters were then dispersed into single cells using TrypLE Express (Life Technologies), and cell number was counted automatically by a Vi-Cell (Beckman Coulter).

[6] = system: differentiating hESC clusters; conditions: Activin A and Y-27632 given together during stage 4; cited from earlier work
[7] = factor added during stage 4, flow cytometry at end of stage 4, vs control
[8] = XXI removed from the media during stage 5, flow cytometry at end of stage 5, vs control with XXI

With `Cc1c[nH]c(-c2cnc(NCCNc3ccc(C#N)cn3)nc2-c2ccc(Cl)cc2Cl)n1` [CHIR99021] the “number / proportion of CHGA+ endocrine cells” value [1, 7] was “decreased”.

For `O=C(Nc1cccc2cccnc12)c1ccc(N2C(=O)[C@@H]3[C@H](C2=O)[C@@H]2C=C[C@H]3C2)cc1` [IWR1-endo], the “overall cell numbers / cell concentration during stage 6” value [2] was “slightly increased”, the “overall cell numbers / cell concentration during stage 6” value ([2]; listed as IWR) was “slightly higher” and the “proportion of hiPSC-1016 derived CHGA+ cells” value [3] was “increases”. The “number / proportion of CHGA+ endocrine cells” value [1, 7] was “significantly raised”, the “number / proportion of PDX1+/NKX6.1+ progenitors” value [1, 7] was “reduced” and the “overall yield of in vitro generated β cells” value ([1]; treatment during stage 5, concluded from β cell proportion and cell numbers) was “increases”. The “increase in proportion of C-PEP+/NKX6.1+ β cells, on average, relative to controls” value ([1]; treatment during stage 5, flow cytometry at end of stage 5) was “more than 50%”, the “proportion of CHGA+ endocrine cells” value ([1]; treatment during stage 5, flow cytometry at end of stage 5, compared with the stage 4 effect) was “even higher relative increase” and the “expression of endocrine markers” value [4] was “increased expression”. For the same molecule, the “expression of progenitor markers” value [4] was “downregulated”, the “insulin secretion in response to high glucose levels (first stimulation)” value ([5]; treatment during stage 5, 2.8 mM to 20 mM glucose) was “maintain their ability to secrete insulin” and the “insulin release on second stimulation with high glucose, compared to controls” value ([5]; treatment during stage 5, consecutive stimulations, 20 mM glucose) was “release less insulin in the second challenge”.

For `C[C@H](NC(=O)Cc1cc(F)cc(F)c1)C(=O)N[C@H]1N=C(c2ccccc2)c2ccccc2N(C)C1=O` [XXI], the “number of CPEP+NKX6.1+ β cells” value [1, 8] was “dramatically reduced” and the “number of GLP2+ α cells” value [1, 8] was “did not significantly affect”.

In the case of `C[C@@H](N)[C@H]1CC[C@H](C(=O)Nc2ccncc2)CC1` [Y-27632], the “appearance of buds on the clusters' surface” value [6] is listed as “induces”.

B1: Activin A: protein factor (R&D Systems) added to differentiation media (protein, UniProt P08476 311-426, looked up)
Inhibin beta A chain: GLECDGKVNICCKKQFFVSFKDIGWNDWIIAPSGYHANYCEGECPSHIAGTSGSSLSFHSTVINHYRMRGHSPFANLKSCCVPTKLRPMSMLYYDDGQNIIKKDIQNMIVEECGCS
modifications: Inhibin beta A chain
notes: protein factor (R&D Systems) added to differentiation media
In the case of B1, the “appearance of buds on the clusters' surface” value [6] is listed as “induces”.

Source: US20220411759A1, “ENDOCRINE DIFFERENTIATION-INDUCING MOLECULE” (President and Fellows of Harvard College, priority 2019, published 2022)
